In article PMC12090809 (Journal of Virology, 2025):
Read-outs that look alike come from different tables or passages of the source.

Tests used:
[1] = system: Env expressed on CH058TF-infected cells; assay: Binding of anti-CoRBS mAb 17b to CH058TF-infected cells after incubation with plasma from BNM-III-170-treated uninfected RMs (FACS); assay type: cell-based, HIV-1
Description: Next, we assessed the ability of the plasma collected from uninfected RMs at various timepoints following BNM-III-170 administration to induce conformational changes in Env expressed on the surface of HIV-1-infected cells. Briefly, plasma was incubated with cells infected with the transmitted/founder virus CH058 (CH058TF) and the binding of the Alexa-Fluor-647-conjugated anti-CoRBS mAb 17b (whose epitope is not exposed on the “closed” Env conformation) to Env expressed on infected cells was measured by FACS (Fig. 1B).
To evaluate the functional activity of bioavailable BNM-III-170 in plasma, the plasma from uninfected RMs treated with BNM-III-170 was used to modulate Env conformation at the surface of infected cells. Briefly, 2 days post-infection, CEM.NKr cells infected with CH058TF were incubated with plasma from RMs (1:10 dilution), the Alexa-Fluor 647-conjugated 17b (5 µg/mL), and the AquaVivid viability dye at 37°C for 45 min. As a positive control, infected cells were incubated with 50 µM of BNM-III-170. Infected cells were then identified based on HIV-1 p24 detection as described above.

[2] = Plasma pharmacokinetics of BNM-III-170 in SHIV AD8-EO-infected RMs (HPLC-MS/MS); assay type: in vivo, Macaca mulatta
Description: Plasma concentrations of BNM-III-170 in SHIV-infected animals were measured via liquid chromatography and mass spectrometry at several timepoints following each BNM-III-170 dose for all treatment cycles.

[3] = system: CH058TF-infected CEM.NKr cells; assay type: cell-based, HIV-1
Description: To assess the ability of bioavailable BNM-III-170 to induce conformational changes in HIV-1 Env, we assessed the capacity of the Abs naturally elicited in these infected RMs to recognize HIV-1-infected cells before and after BNM-III-170 administration. Plasma from treated animals was incubated with CH058TF-infected CEM.NKr cells, and the ability to recognize infected cells was measured by flow cytometry. […] Importantly, as observed in uninfected RMs, plasma levels of BNM-III-170 in treated, SHIV-infected RMs closely mirrored the kinetic curves for plasma binding.
Cell surface staining was performed at 48 h post-infection. Mock-infected or HIV-1-infected CEM.NKr or primary CD4+ T cells were incubated for 45 min at 37°C with anti-Env mAbs (5 µg/mL), plasma from PWH (1:1,000 dilution), or plasma from infected RMs (1:500). When indicated, antibody/plasma incubation was done in the presence of 50 µM of BNM-III-170, or equivalent amounts of DMSO. To evaluate the capacity of plasma from SHIV-AD8-EO-infected RMs treated with BNM-III-170 to recognize HIV-1-infected cells, a 1:10 plasma dilution was used. Cells were then washed twice with PBS and stained with the appropriate Alexa Fluor 647-conjugated secondary antibody (2 µg/mL) for 20 min and the viability dye AquaVivid (Thermo Fisher Scientific) at room temperature. […]

SHIV AD8-EO = assay: Viral infectivity / neutralization assay in TZM-bl cells with SHIV variants; details: virus incubated with BNM-III-170 (Fig. 2A)
Description: The viral neutralization assay was done as previously described ([56]). Briefly, TZM-bl target cells were seeded at a density of 1 × 10^4 cells/well in 96-well luminometer-compatible tissue culture plates (Perkin-Elmer Life Sciences, Waltham, MA) 24 h before infection. Then, 100 µL portions of recombinant viruses was incubated with the indicated amount of mAbs, plasma, BNM-III-170, or a mixture of mAbs and BNM-III-170 for 1 h at 37°C and then added to the target cells. After incubation for 48 h at 37°C, the medium was removed from each well, and the cells were lysed by the addition of 30 µL of passive lysis buffer (Promega) and three freeze-thaw cycles. An LB 941 TriStar luminometer (Berthold Technologies) was used to measure the luciferase activity in each well after the addition of 100 µL of luciferin buffer (15 mM MgSO4, 15 mM KPO4 [pH 7.8], 1 mM ATP, and 1 mM dithiothreitol) and 50 µL of 1 mM D-luciferin potassium salt (Prolume).

[4] = system: SHIV AD8-EO-infected rhesus macaques; assay: Complete blood counts and flow cytometry immunophenotyping of PBMCs in SHIV AD8-EO-infected RMs after BNM-III-170; assay type: in vivo, Macaca mulatta
Description: In addition to monitoring blood chemistries, complete blood counts (CBCs) were performed immediately prior to BNM-III-170 treatment and at several post-treatment timepoints (Fig. 4A). Significant increases in white blood cell counts (WBCs) were observed between 0 h and 24 h after the terminal dose of each treatment cycle (median WBCs: 7,550 and 12,595, respectively, P-value = 0.0391). This increase in WBCs was largely attributed to increases in neutrophils (median counts at 0 h vs. 24 h of 2,926 and 8,004, P-value = 0.0078) and, to a lesser extent, monocytes (median counts at 0 h vs 24 h after the terminal dose of 696 and 1,537, P-value = 0.0391). […] Of note, this lymphopenia was generally transient (Fig. S5).
To further investigate this observed lymphopenia, multiparameter flow cytometry was performed on PBMCs from 0 h and 24 h post-terminal dose timepoints from all treatment cycles (Fig. S6). […] While the exact cause of this non-specific lymphopenia is unknown, it may be due to depletion of lymphocytes or migration of lymphocytes to tissue; the latter explanation is more consistent with the transient nature of the lymphopenia.
A 20-parameter flow cytometric analysis was performed on fresh PBMCs and mononuclear cells (10^6 cells) derived from LN biopsies using anti-human monoclonal Abs (mAbs), which we ([6], [58][–][60]) and others, including databases maintained by the NHP Reagent Resource (MassBiologics), have shown as being cross-reactive in RMs. […] All samples were fixed with 1% paraformaldehyde and acquired within 24 h of fixation. Acquisition of data was performed on a FACSymphony A5 (BD Biosciences) driven by FACS DiVa software and analyzed with FlowJo (version 10.7; Becton, Dickinson, and Company).

[5] = in vivo, 12 mg/kg
Description: BNM-III-170 levels in plasma from rhesus macaque were determined by high-performance liquid chromatography-tandem mass spectrometry (HPLC-MS/MS). Briefly, BNM-III-170 was extracted from plasma using protein precipitation. A Thermo Scientific TSQ Quantiva triple quadrupole mass spectrometer was interfaced with the Thermo Scientific Ultimate 3000XRS UHPLC system using a heated electrospray ion source (HESI). MS detection was performed in positive ion mode, using multiple reaction monitoring (MRM). The precursor-ion reactions for BNM-III-170 and IS were set to 447.3 → [226.1 + 357.1] and 262.0 → 139.1, respectively. Chromatographic separation was achieved on a Thermo Scientific Accucore RP-MS analytical column (100 × 2.1 mm I.D., 2.6 mm) maintained at 40°C using isocratic elution, which consisted of acetonitrile and 10 mM ammonium formate in water (pH 3.0) at a ratio of 20:80, respectively. The flow rate was fixed at 300 µL/min. Acquisition and analysis of data were conducted using the Xcalibur 4.0 software. Each calibration curve was comprised of a double blank (matrix without analyte or internal standard), zero standard, and eight calibration points. Calibration curves were computed from the equation y = ax + b, based on the weight of the calibration lines created from the peak-area ratios of the drug relative to the internal standard.

CNCc1ccc2c(c1)C[C@H](CN=C(N)N)[C@H]2NC(=O)C(=O)Nc1ccc(Cl)c(F)c1.O=C(O)C(F)(F)F.O=C(O)C(F)(F)F [BNM-III-170]
association between 17b binding and BNM-III-170 plasma concentrations ([1]; each dose and all combined doses, Spearman correlation): positive correlation
effect on 17b binding to CH058TF-infected cells ([1]; plasma from uninfected RMs, all tested doses (3–36 mg/kg SQ)): consistently shown to increase 17b binding
duration of residual 17b activity ([1]; plasma from uninfected RMs, highest tested dose (36 mg/kg SQ)): up to 8 h
Cmax ([2]; SHIV AD8-EO-infected RMs, following first dose of each treatment cycle (24 or 36 mg/kg SQ)): 4100 to 12800 ng/mL
plasma BNM-III-170 level between doses ([2]; SHIV-infected RMs, 36 mg/kg once every 3 days): below the limit of detection
plasma level 6 h after each dose ([2]; SHIV-infected RMs, all treatment cycles, generally): > 675 ng/mL
association of BNM-III-170 plasma concentrations with plasma binding to infected cells ([3]; each treatment cycle, Spearman correlation): correlated with plasma binding to infected cells
time post-administration up to which RM plasma efficiently recognized infected cells ([3]; plasma from treated SHIV-infected RMs, depending on the dose used): up to 6 h
effect on SHIV AD8-EO infectivity (SHIV AD8-EO): directly decrease SHIV AD8-EO infectivity
white blood cell counts (WBCs), median ([4]; 24 h after terminal dose of each treatment cycle, 0 h median 7,550, P-value = 0.0391): 12,595
monocytes, median counts ([4]; 24 h after terminal dose, 0 h median 696, P-value = 0.0391): 1,537
neutrophils, median counts ([4]; 24 h after terminal dose, 0 h median 2,926, P-value = 0.0078): 8,004
absolute numbers of NK cells, median ([4]; 24 h post-terminal dose, 0 h median 191, P = 0.0078): 48 cells per μL blood
absolute numbers of CD4+ T cells, median ([4]; 24 h post-terminal dose, 0 h median 496, P = 0.0078): 283 cells per μL blood
absolute numbers of CD8+ T cells, median ([4]; 24 h post-terminal dose, 0 h median 1,084, P = 0.0078): 323.5 cells per μL blood
absolute numbers of B cells, median ([4]; 24 h post-terminal dose, 0 h median 1,129, P = 0.0391): 1,080 cells per μL blood
lymphocyte frequency in whole blood ([4]; 24 h post-terminal dose, 49% at 0 h, P = 0.0078): 19.5%
lymphocyte numbers in whole blood ([4]; 24 h post-terminal dose, 3,774 at 0 h, P = 0.0078): 2,068
Cmax [5]: 15300 ng/mL
